Experimental data published in PMC6825215, “An anionic, endosome-escaping polymer to potentiate intracellular delivery of cationic peptides, biomacromolecules, and nanoparticles” (Nature Communications, 2019).
Where two headings read alike, the source gives them in different places. Where no end group is shown, it is not given here.

How the values were obtained:
[1] = test system: HCAVSMCs; assay: Inhibitor uptake studies; type: cell-based, human; details: for inhibition at 100 µM / inhibition at 0.1 µM: Homo sapiens; for effect of inhibitor during PPAA pretreatment only on subsequent YARA-MK2i peptide uptake: no inhibitor present during peptide treatment
[2] = test system: Luciferase expressing A7r5 cells; assay: Luciferase gene-silencing assay; type: cell-based, rat; details: sequentially delivered 25 nM siRNA as peptide-siRNA polyplexes
Protocol: Luciferase expressing A7r5 cells were seeded in a black, clear bottom 96-well plate at a density of 10,000 cells/well in DMEM containing 10% FBS and 1% P/S and allowed to adhere overnight. D-DPB NPs, PepFect-siRNA polyplexes, and CADY-siRNA polyplexes were formulated and loaded with luciferase or scrambled siRNA as noted above. […] Luciferase gene silencing was calculated compared with cells treated with an equivalent dose of scrambled siRNA loaded into D-DPB NPs as a control.

[3] = test system: HMVECs; assay: Vivo-morpholino colocalization with LysoTracker Red; type: cell-based, human; details: delivery with either 2.5 or 5 µM PPAA, 5 µM vivo-morpholino
Protocol: HMVECs were seeded into Lab-Tek II 8-well chambered coverslips at a density of 10,000 cells/well and incubated overnight. […] Lysotracker staining, imaging of cells, and image processing was carried out as noted above in the peptide endosomal escape experiment.

[4] = test system: human coronary artery vascular smooth muscle cells (HCAVSMCs); assay: Flow cytometric uptake and retention of fluorescently labeled peptide; details: 5 µM Alexa-488 labeled peptide, mass ratios 3:1 to 1:20 peptide:polymer, 30 min, flow cytometry
Protocol: (§1) Cells were treated as defined in the following sections in Opti-MEM medium supplemented with 1% penicillin-streptomycin and 1% FBS. For all flow cytometry assays, following treatment or post-treatment incubation, cells were washed 2× in PBS without calcium or magnesium, harvested with 0.05% trypsin-EDTA, centrifuged, resuspended in 300 µL of 0.05% Trypan blue in PBS without calcium or magnesium, and transferred to a 96-well plate for analysis on an EMD Millipore Guava easyCyte™ 5HT flow cytometer with InCyte software for data acquisition. […] All samples were run in triplicate. All flow cytometric uptake data are presented as fold increase in peptide, vivo-morpholino, or nanoparticle uptake relative to treatment with an equivalent dose of the corresponding fluorescently labeled peptide, vivo-morpholino, or nanoparticle formulation alone. Absolute fluorescence data of peptide uptake is shown in the supplement (Supplementary Figs. 4 and 7).
(§2) Cells were then treated with each formulation for 30 min.
Cell culture medium containing the polymer treatment was then aspirated, and cells were subsequently treated with fluorescent peptide or vivo-morpholino alone for 30 min.
HCAVSMCs were seeded and treated for 30 min as noted above.

[5] = test system: HEK 293-T LgBiT cells; assay: NanoLuc luciferase intracellular bioavailability assay; type: cell-based, human; details: sequential delivery of 5 µM PPAA followed by 0.5 or 1 µM YARA-HiBiT, 30 min each; 6 h incubation
Protocol: HEK 293-T LgBiT cells were seeded into a collagen-coated 96-well plate in DMEM with 10% FBS and 1% P/S and allowed to incubate for 24 h. […] The treatment was then removed and cells were incubated in 10% FBS media for 6 h. Prior to reading, the TECAN Infinite M1000 Pro plate reader was warmed to 37 °C. The cells were treated with 1 μM DrkBiT for 2 min, after which the NanoLuc substrate was added. The plate was immediately read on the plate reader in a kinetic luminescence cycle for 20 min. Peak luminescence data points were calculated by taking the average of the five readings at the peak of the kinetic curve.

[6] = test system: HCAVSMCs, HMVECs, RAW 264.7, MCF7, and HEK 293T cells; assay: Polymer dose-dependent YARA-MK2i uptake in five cell types; details: co-delivery with 2–5 µM PPAA; all five cell lines; flow cytometry
Protocol: as §1, §2

[7] = read-out: inhibition of YARA-MK2i peptide uptake, co-delivery with 5 µM PPAA, inhibitor (100 nM wortmannin, 100 µM dynasore) 30 min pretreatment and throughout treatment
[8] = read-out: inhibition of YARA-MK2i peptide uptake, sequential delivery, 5 µM PPAA then peptide, inhibitor (100 nM wortmannin, 100 µM dynasore) 30 min pretreatment and throughout treatment

**Q.** Which “effect on uptake of fluorescent PPAA polymer (without peptide)” value ([1]; 0-200 µM dynasore, 30 min pretreatment, rhodamine labeled PPAA) does the source give for `O=C(N/N=C/c1ccc(O)c(O)c1)c1cc2ccccc2cc1O` [dynasore, Dynasore] here?
**A.** dose-dependently inhibited internalization

**Q.** What about the inhibition at 100 µM [1, 7] of the same molecule?
**A.** ~30%

**Q.** What about the inhibition at 100 µM [1, 8] of the same molecule?
**A.** ~44%

**Q.** What about the “effect of inhibitor during PPAA pretreatment only on subsequent YARA-MK2i peptide uptake” value [1] of the same molecule?
**A.** dose-dependent increase in subsequent YARA-MK2i peptide internalization

**Q.** What does the source list for `COC[C@H]1OC(=O)c2coc3c2[C@@]1(C)C1=C(C3=O)[C@@H]2CCC(=O)[C@@]2(C)C[C@H]1OC(C)=O` [wortmannin, Wortmannin]?
**A.** inhibition at 0.1 µM [1, 7]: ~69%; inhibition at 0.1 µM [1, 8]: ~89%; effect of inhibitor during PPAA pretreatment only on subsequent YARA-MK2i peptide uptake [1]: significantly reduced subsequent peptide uptake

**Q.** How did the “effect of PPAA pretreatment on gene-silencing activity of siRNA polyplexes” value [2] turn out when “Ac-GLWRALWRLLRSLWRLLWRA-cya (Ac-GLWRALWRLLRSLWRLLWRA-cysteamide) [CADY, secondary amphipathic CPP, nucleic acid delivery vector]” was run?
**A.** enhanced the gene-silencing activity

**Q.** With “CD47 vivo-morpholino: phosphorodiamidite morpholino oligomer conjugated to a cationic octa-guanidine dendrimer; 5′-CGTCACAGGCAGGACCCACTGCCCA (all phosphorodiamidate morpholino (PMO); octa-guanidine dendrimer conjugated, position not given here, further chemistry not fully specified)” as the molecule, how does the “colocalization with the endolysosomal dye LysoTracker Red” value [3] read?
**A.** significantly reduced CD47 vivo-morpholino colocalization

**Q.** Which “effect of inhibitor during PPAA pretreatment only on subsequent YARA-MK2i peptide uptake” value [1] does the source give for Dextran sulfate here?
**A.** Neither methyl-β-cyclodextrin nor dextran sulfate addition during PPAA pretreatment had any effects on subsequent peptide uptake

**Q.** How did the “effect of co-delivery with PPAA (pre-complexed NPs) on peptide uptake” value (“effect of co-delivery with PPAA” for short) [4] turn out when GRKKRRQRRRPPQKALARQLGVAA [TAT-MK2i] was run?
**A.** consistently increased peptide uptake

**Q.** KLRKVSpK [VASP (no CPP)] was tested. Which “effect of co-delivery with PPAA” value [4] did it give?
**A.** no polymer effect on uptake

**Q.** How did the “effect of inhibitor during PPAA pretreatment only on subsequent YARA-MK2i peptide uptake” value [1] turn out when Methyl-β-cyclodextrin was run?
**A.** Neither methyl-β-cyclodextrin nor dextran sulfate addition during PPAA pretreatment had any effects on subsequent peptide uptake

**Q.** How did the “effect of co-delivery with PPAA” value [4] turn out when “RQIKIWFQNRRMKWKKKALARQLGVAA [Penetratin-MK2i]” was run?
**A.** did not display significant PPAA-mediated enhancement of uptake with co-delivery

**Q.** How did the “effect of co-delivery with PPAA” value [4] turn out when RRRRRRKALARQLGVAA [R6-MK2i] was run?
**A.** consistently increased peptide uptake

**Q.** “Stearyl-AGYLLGKLLOOLAAAALOOLL [PepFect, stearylated, secondary amphipathic CPP, nucleic acid delivery vector]” was tested. Which “effect of PPAA pretreatment on gene-silencing activity of siRNA polyplexes” value [2] did it give?
**A.** enhanced the gene-silencing activity

**Q.** How did the “intracellular delivery (NanoLuc luminescence)” value [5] turn out when “YARAAARQARA-HiBiT [YARA-HiBiT, YARA CPP fused to the HiBiT peptide of the NanoLuc platform]” was run?
**A.** significantly enhanced intracellular delivery

**Q.** With YARAAARQARA-KLRKVSpK [YARA-VASP] as the molecule, how does the “effect of co-delivery with PPAA” value [4] read?
**A.** Very similar trends in PPAA dose-dependent uptake

**Q.** For YARAAARQARAKALARQLGVAA [YARA-MK2i], which “fold increase in uptake of the YARA-MK2i peptide” value [6] is on record?
**A.** 10–30 fold
